Results reported in ChEMBL document CHEMBL2331477, “Effect of helical conformation and side chain structure on γ-secretase inhibition by β-peptide foldamers: insight into substrate recognition” (J Med Chem, 2013).
Calls of active or inactive are those of the source. No cut-off for these calls is given here.

Tests used:
[1] = target: T1, Gamma-secretase (Homo sapiens) (UniProt Q96BI3+Q9NZ42+Q8WW43+P49768+Q92542+P49810); test: Inhibition of gamma-secretase (unknown origin) expressed in N2a NL/N cells coexpressing betaAPPNL and NotchdeltaE assessed as Abeta40 secretion at 100 nM by ELISA; type: cell-based
[2] = target: T1, Gamma-secretase (Homo sapiens); test: Inhibition of gamma-secretase (unknown origin) expressed in N2a NL/N cells coexpressing betaAPPNL and NotchdeltaE assessed as Abeta42 secretion at 100 nM by ELISA; type: cell-based

Row | SMILES | inhibition [1] | inhibition [2]
1 | CC(=O)N[C@H]1CCC[C@@H]1C(=O)N[C@H]1CCC[C@@H]1C(=O)N[C@H]1CCC[C@@H]1C(=O)N[C@H]1CCC[C@@H]1C(=O)N[C@H]1CCC[C@@H]1C(=O)N[C@H](CC(=O)N[C@H]1CCC[C@@H]1C(=O)N[C@H]1CCC[C@@H]1C(=O)N[C@H]1CCC[C@@H]1C(=O)N[C@H]1CCC[C@@H]1C(=O)N[C@H]1CCC[C@@H]1C(=O)N[C@H]1CCC[C@@H]1C(N)=O)CC(C)C | inactive | inactive
2 | CC(=O)N[C@H]1CCC[C@@H]1C(=O)N[C@H]1CCC[C@@H]1C(=O)N[C@@H](CS)CC(=O)N[C@H]1CCC[C@@H]1C(=O)N[C@H]1CCC[C@@H]1C(=O)N[C@H]1CCC[C@@H]1C(=O)N[C@H]1CCC[C@@H]1C(=O)N[C@H]1CCC[C@@H]1C(=O)N[C@H]1CCC[C@@H]1C(=O)N[C@H]1CCC[C@@H]1C(=O)N[C@H]1CCC[C@@H]1C(=O)N[C@H]1CCC[C@@H]1C(N)=O | Active | Active
3 | CC(=O)N[C@H]1CCC[C@@H]1C(=O)N[C@H]1CCC[C@@H]1C(=O)N[C@@H](CCCCN)CC(=O)N[C@H]1CCC[C@@H]1C(=O)N[C@H]1CCC[C@@H]1C(=O)N[C@H]1CCC[C@@H]1C(=O)N[C@H]1CCC[C@@H]1C(=O)N[C@H]1CCC[C@@H]1C(=O)N[C@H]1CCC[C@@H]1C(=O)N[C@H]1CCC[C@@H]1C(=O)N[C@H]1CCC[C@@H]1C(=O)N[C@H]1CCC[C@@H]1C(N)=O | Active | Active
4 | CC(=O)N[C@H]1CCC[C@@H]1C(=O)N[C@H]1CCC[C@@H]1C(=O)N[C@H]1CCC[C@@H]1C(=O)N[C@H]1CCC[C@@H]1C(=O)N[C@H]1CCC[C@@H]1C(=O)N[C@H]1CCC[C@@H]1C(=O)N[C@H]1CCC[C@@H]1C(=O)N[C@H]1CCC[C@@H]1C(=O)N[C@H](CC(=O)N[C@H]1CCC[C@@H]1C(=O)N[C@H]1CCC[C@@H]1C(=O)N[C@H]1CCC[C@@H]1C(N)=O)Cc1ccc(O)cc1 | inactive | inactive
5 | CC(=O)N[C@H]1CCC[C@@H]1C(=O)N[C@H]1CCC[C@@H]1C(=O)N[C@H](CC(=O)N[C@H]1CCC[C@@H]1C(=O)N[C@H]1CCC[C@@H]1C(=O)N[C@H]1CCC[C@@H]1C(=O)N[C@H]1CCC[C@@H]1C(=O)N[C@H]1CCC[C@@H]1C(=O)N[C@H]1CCC[C@@H]1C(=O)N[C@H]1CCC[C@@H]1C(=O)N[C@H]1CCC[C@@H]1C(=O)N[C@H]1CCC[C@@H]1C(N)=O)CC(C)C | Active | Active
6 | CC(=O)N[C@H]1CCC[C@@H]1C(=O)N[C@H]1CCC[C@@H]1C(=O)N[C@H]1CCC[C@@H]1C(=O)N[C@H]1CCC[C@@H]1C(=O)N[C@H]1CCC[C@@H]1C(=O)N[C@H]1CCC[C@@H]1C(=O)N[C@H]1CCC[C@@H]1C(=O)N[C@H]1CCC[C@@H]1C(=O)NC(CO)CC(=O)N[C@H]1CCC[C@@H]1C(=O)N[C@H]1CCC[C@@H]1C(=O)N[C@H]1CCC[C@@H]1C(N)=O (single isomer, unassigned) | inactive | inactive
7 | CC(=O)N[C@H]1CCC[C@@H]1C(=O)N[C@H]1CCC[C@@H]1C(=O)N[C@H]1CCC[C@@H]1C(=O)N[C@H]1CCC[C@@H]1C(=O)N[C@H]1CCC[C@@H]1C(=O)N[C@H]1CCC[C@@H]1C(=O)N[C@H]1CCC[C@@H]1C(=O)N[C@H]1CCC[C@@H]1C(=O)N[C@@H](CCCCN)CC(=O)N[C@H]1CCC[C@@H]1C(=O)N[C@H]1CCC[C@@H]1C(=O)N[C@H]1CCC[C@@H]1C(N)=O | inactive | inactive
8 | CC(=O)N[C@H]1CCC[C@@H]1C(=O)N[C@H]1CCC[C@@H]1C(=O)N[C@H]1CCC[C@@H]1C(=O)N[C@H]1CCC[C@@H]1C(=O)N[C@H]1CCC[C@@H]1C(=O)N[C@@H](CCCCN)CC(=O)N[C@H]1CCC[C@@H]1C(=O)N[C@H]1CCC[C@@H]1C(=O)N[C@H]1CCC[C@@H]1C(=O)N[C@H]1CCC[C@@H]1C(=O)N[C@H]1CCC[C@@H]1C(=O)N[C@H]1CCC[C@@H]1C(N)=O | inactive | inactive
9 | CC(=O)N[C@H]1CCC[C@@H]1C(=O)N[C@H]1CCC[C@@H]1C(=O)N[C@H]1COC[C@@H]1C(=O)N[C@H]1CCC[C@@H]1C(=O)N[C@H]1CCC[C@@H]1C(=O)N[C@H]1CCC[C@@H]1C(=O)N[C@H]1CCC[C@@H]1C(=O)N[C@H]1CCC[C@@H]1C(=O)N[C@H]1CCC[C@@H]1C(=O)N[C@H]1CCC[C@@H]1C(=O)N[C@H]1CCC[C@@H]1C(=O)N[C@H]1CCC[C@@H]1C(N)=O | Active | Active
10 | CC(=O)N[C@H]1CCC[C@@H]1C(=O)N[C@H]1CCC[C@@H]1C(=O)N[C@H](CC(=O)N[C@H]1CCC[C@@H]1C(=O)N[C@H]1CCC[C@@H]1C(=O)N[C@H]1CCC[C@@H]1C(=O)N[C@H]1CCC[C@@H]1C(=O)N[C@H]1CCC[C@@H]1C(=O)N[C@H]1CCC[C@@H]1C(=O)N[C@H]1CCC[C@@H]1C(=O)N[C@H]1CCC[C@@H]1C(=O)N[C@H]1CCC[C@@H]1C(N)=O)Cc1ccc(O)cc1 | inactive | inactive
11 | CC(=O)N[C@H]1CCC[C@@H]1C(=O)N[C@H]1CCC[C@@H]1C(=O)N[C@H]1CCC[C@@H]1C(=O)N[C@H]1CCC[C@@H]1C(=O)N[C@H]1CCC[C@@H]1C(=O)N[C@H]1CCC[C@@H]1C(=O)N[C@H]1CCC[C@@H]1C(=O)N[C@H]1CCC[C@@H]1C(=O)N[C@H](CC(=O)N[C@H]1CCC[C@@H]1C(=O)N[C@H]1CCC[C@@H]1C(=O)N[C@H]1CCC[C@@H]1C(N)=O)CC(C)C | inactive | inactive
12 | CC(=O)N[C@H]1CCC[C@@H]1C(=O)N[C@H]1CCC[C@@H]1C(=O)N[C@H]1CCC[C@@H]1C(=O)N[C@H]1CCC[C@@H]1C(=O)N[C@H]1CCC[C@@H]1C(=O)N[C@H](CC(=O)N[C@H]1CCC[C@@H]1C(=O)N[C@H]1CCC[C@@H]1C(=O)N[C@H]1CCC[C@@H]1C(=O)N[C@H]1CCC[C@@H]1C(=O)N[C@H]1CCC[C@@H]1C(=O)N[C@H]1CCC[C@@H]1C(N)=O)Cc1ccc(O)cc1 | inactive | inactive
13 | CC(=O)N[C@H]1CCC[C@@H]1C(=O)N[C@H]1CCC[C@@H]1C(=O)N[C@H]1CCC[C@@H]1C(=O)N[C@H]1CCC[C@@H]1C(=O)N[C@H]1CCC[C@@H]1C(=O)N[C@@H](CC(=O)N[C@H]1CCC[C@@H]1C(=O)N[C@H]1CCC[C@@H]1C(=O)N[C@H]1CCC[C@@H]1C(=O)N[C@H]1CCC[C@@H]1C(=O)N[C@H]1CCC[C@@H]1C(=O)N[C@H]1CCC[C@@H]1C(N)=O)[C@@H](C)O | inactive | inactive

More lines, now with the values ahead:

Row | inhibition [1] | inhibition [2] | SMILES
14 | inactive | inactive | CC(=O)N[C@H]1CCC[C@@H]1C(=O)N[C@H]1CCC[C@@H]1C(=O)N[C@H]1CCC[C@@H]1C(=O)N[C@H]1CCC[C@@H]1C(=O)N[C@H]1CCC[C@@H]1C(=O)N[C@@H](CC(N)=O)CC(=O)N[C@H]1CCC[C@@H]1C(=O)N[C@H]1CCC[C@@H]1C(=O)N[C@H]1CCC[C@@H]1C(=O)N[C@H]1CCC[C@@H]1C(=O)N[C@H]1CCC[C@@H]1C(=O)N[C@H]1CCC[C@@H]1C(N)=O
15 | inactive | inactive | CC(=O)N[C@H]1CCC[C@@H]1C(=O)N[C@H]1CCC[C@@H]1C(=O)N[C@H]1CCC[C@@H]1C(=O)N[C@H]1CCC[C@@H]1C(=O)N[C@H]1CCC[C@@H]1C(=O)N[C@H]1CCC[C@@H]1C(=O)N[C@H]1CCC[C@@H]1C(=O)N[C@H]1CCC[C@@H]1C(=O)N[C@@H](CC(N)=O)CC(=O)N[C@H]1CCC[C@@H]1C(=O)N[C@H]1CCC[C@@H]1C(=O)N[C@H]1CCC[C@@H]1C(N)=O
16 | Active | Active | CC(=O)N[C@H]1CCC[C@@H]1C(=O)N[C@H]1CCC[C@@H]1C(=O)N[C@@H](CCC(=O)O)CC(=O)N[C@H]1CCC[C@@H]1C(=O)N[C@H]1CCC[C@@H]1C(=O)N[C@H]1CCC[C@@H]1C(=O)N[C@H]1CCC[C@@H]1C(=O)N[C@H]1CCC[C@@H]1C(=O)N[C@H]1CCC[C@@H]1C(=O)N[C@H]1CCC[C@@H]1C(=O)N[C@H]1CCC[C@@H]1C(=O)N[C@H]1CCC[C@@H]1C(N)=O
17 | inactive | inactive | CC(=O)N[C@H]1CCC[C@@H]1C(=O)N[C@H]1CCC[C@@H]1C(=O)N[C@H]1CCC[C@@H]1C(=O)N[C@H]1CCC[C@@H]1C(=O)N[C@H]1CCC[C@@H]1C(=O)N[C@@H](CCC(=O)O)CC(=O)N[C@H]1CCC[C@@H]1C(=O)N[C@H]1CCC[C@@H]1C(=O)N[C@H]1CCC[C@@H]1C(=O)N[C@H]1CCC[C@@H]1C(=O)N[C@H]1CCC[C@@H]1C(=O)N[C@H]1CCC[C@@H]1C(N)=O
18 | Active | Active | CC(=O)N[C@H]1CCC[C@@H]1C(=O)N[C@H]1CCC[C@@H]1C(=O)N[C@@H](CCC(N)=O)CC(=O)N[C@H]1CCC[C@@H]1C(=O)N[C@H]1CCC[C@@H]1C(=O)N[C@H]1CCC[C@@H]1C(=O)N[C@H]1CCC[C@@H]1C(=O)N[C@H]1CCC[C@@H]1C(=O)N[C@H]1CCC[C@@H]1C(=O)N[C@H]1CCC[C@@H]1C(=O)N[C@H]1CCC[C@@H]1C(=O)N[C@H]1CCC[C@@H]1C(N)=O
19 | inactive | inactive | CC(=O)N[C@H]1CCC[C@@H]1C(=O)N[C@H]1CCC[C@@H]1C(=O)N[C@H]1CCC[C@@H]1C(=O)N[C@H]1CCC[C@@H]1C(=O)N[C@H]1CCC[C@@H]1C(=O)N[C@H]1CCC[C@@H]1C(=O)N[C@H]1CCC[C@@H]1C(=O)N[C@H]1CCC[C@@H]1C(=O)N[C@@H](CCC(=O)O)CC(=O)N[C@H]1CCC[C@@H]1C(=O)N[C@H]1CCC[C@@H]1C(=O)N[C@H]1CCC[C@@H]1C(N)=O
20 | inactive | inactive | CC(=O)N[C@H]1CCC[C@@H]1C(=O)N[C@H]1CCC[C@@H]1C(=O)N[C@H]1CCC[C@@H]1C(=O)N[C@H]1CCC[C@@H]1C(=O)N[C@H]1CCC[C@@H]1C(=O)N[C@@H](CCC(N)=O)CC(=O)N[C@H]1CCC[C@@H]1C(=O)N[C@H]1CCC[C@@H]1C(=O)N[C@H]1CCC[C@@H]1C(=O)N[C@H]1CCC[C@@H]1C(=O)N[C@H]1CCC[C@@H]1C(=O)N[C@H]1CCC[C@@H]1C(N)=O
21 | inactive | inactive | CC(=O)N[C@H]1CCC[C@@H]1C(=O)N[C@H]1CCC[C@@H]1C(=O)N[C@H]1CCC[C@@H]1C(=O)N[C@H]1CCC[C@@H]1C(=O)N[C@H]1CCC[C@@H]1C(=O)N[C@H]1CCC[C@@H]1C(=O)N[C@H]1CCC[C@@H]1C(=O)N[C@H]1CCC[C@@H]1C(=O)N[C@@H](CCC(N)=O)CC(=O)N[C@H]1CCC[C@@H]1C(=O)N[C@H]1CCC[C@@H]1C(=O)N[C@H]1CCC[C@@H]1C(N)=O
